Assay results from patent US20130064901A1, “GENE EXPRESSION PROFILING FOR CLASSIFYING AND TREATING GASTRIC CANCER” (Agency for Science, Technology and Research, priority 2011, published 2013).
“Also recorded” adds a separate entry of the source. Read-outs that look alike come from different tables or passages of the source.

Experiments:
[1] = system: GC subsets; details: INT-0116, ten-year update subgroup analysis; cited from earlier work
[2] = system: G-DIF gastric cancer cell lines; test: In vitro cell proliferation assay (MTS), G-DIF cell lines; format: cell-based, human; details: mean of 17 G-DIF cell lines, drug concentration at which 50% growth inhibition is achieved, read-out: Mean GI-50 concentration
Description: (§1) Cell proliferation assays were performed using a tetrazolium compound-based colorimetric method. Adherent or semi-adherent cell lines with doubling times less than 48 hours were used in this analysis. The cell lines for which cell proliferation assays were performed are: YCC19, YCC18, TMK1, YCC2, CLS145, YCC9, YCC6, NUGC3, HGC-27, Fu97, Ist1, YCC7, YCC16, Hs746T, MKN45, KatoIII, AGS, SNU719, AZ521, YCC1, MKN1, YCC11, IM95, MKN7, YCC3, YCC10, SCH and N87. Cell proliferation assays were performed using a tetrazolium compound-based colorimetric method (MTS kit, Promega, Madison, Wis., USA) according to the manufacturer's instructions and measured using an EnVision 2104 multilabel plate reader (Perkin Elmer, Finland) at 490 nm. Inhibition of cell growth by drugs was also visually confirmed under microscopy. Drugs used include cisplatin (Sigma, 479306-1G), oxaliplatin (Sigma, O9512), 5-Fluorouracil (Sigma, F6627-1G).
(§2) Of the 37 cell lines, 28 cell lines (11 G-INT and 17 G-DIF) had growth characteristics suitable for in vitro drug sensitivity testing. 5-FU, oxaliplatin and cisplatin are drugs presently employed in the adjuvant and 1st line palliative treatment of GC. The 28 cell lines were treated with increasing concentrations of these drugs.

[3] = system: G-INT gastric cancer cell lines; test: In vitro cell proliferation assay (MTS), G-INT cell lines; format: cell-based, human; details: for In vitro sensitivity of G-INT versus G-DIF cell lines: 28 cell lines (11 G-INT and 17 G-DIF) treated with increasing concentrations; for GI50: mean of 11 G-INT cell lines, drug concentration at which 50% growth inhibition is achieved, read-out: Mean GI-50 concentration
Description: as §1, §2

GI50 ([2]; Homo sapiens) [µM]	GI50 ([3]; Homo sapiens) [µM]	SMILES	Benefit from 5-FU therapy by GC subset [1]	In vitro sensitivity of G-INT versus G-DIF cell lines [3]	GI50 [2] [µM]	GI50 [3] [µM]
23.2	5.2	O=c1[nH]cc(F)c(=O)[nH]1 [5-FU, 5-Fluorouracil]	all GC subsets benefited from 5-FU therapy except for cases with diffuse histology	G-INT cell lines were significantly more sensitive		
		N.N.[Cl][Pt][Cl] [cisplatin]		G-DIF cell lines were more sensitive; also recorded: more resistant	13.3	38.6
		O=C1[O][Pt]2([NH][C@@H]3CCCC[C@H]3[NH]2)[O]C1=O [oxaliplatin]		G-INT cell lines were significantly more sensitive	5.49	1.33
